Data from patent US20110251229A1 (priority 2007, published 2011).
“Also recorded” adds a separate entry of the source.

Assays:
TLR4 mRNA = TLR4 mRNA expression in lumbar dorsal spinal cord after chronic intrathecal opioids; type: in vivo, rat; conditions: 15 μg intrathecal once daily for 7 days, relative to GAPDH
human TLR4 = biological target: T1, human TLR4 (Homo sapiens, UniProt O00206); type: cell-based
T1 construct: host or cells: HEK 293

[1] = system: morphine analgesia in rats; assay: Potentiation of acute morphine analgesia, Hargreaves test; type: in vivo, rat
morphine-treated rats = assay: Chronic systemic morphine & (+)-naloxone experiment (Hargreaves, precipitated withdrawal, weight); type: in vivo, rat
[2] = system: RAW264.7 mouse macrophage cell line expressing GFP-tagged Akt1 (TLR4 signaling); type: cell-based
[3] = system: astrocyte (GFAP) and microglia (CD11b/c) activation markers; assay: Glial activation markers (GFAP, CD11b/c) in L5 spinal cord of CCI rats, immunohistochemistry; type: in vivo, rat; conditions: 60 μg/hr intrathecal across 4 days, vs vehicle; for CD11b/c expression: bilaterally; for GFAP expression in ipsilateral or contralateral dorsal horns: densitometry
Protocol: Following the final behavioral testing rats were transcardially perfused first with isotonic saline and then with fresh 4% paraformaldehyde/0.1 M phosphate buffer (4% PFA/PB, pH 7.4). After dissection and immersion post-fixation in 4% PFA/PB for an additional 24 hr, the lumbar spinal cords then dehydrated in 30% sucrose with 0.1% azide at 4° C. until slicing.
For immunohistochemistry, sections were treated to suppress endogenous peroxidase and to prevent staining of endogenous biotin. The sections were incubated in either primary mouse monoclonal anti-rat glial fibrillary acidic protein (GFAP) (1:500; to visualize astrocyte astrocyte activation; ICN Biomedicals, Costa Mesa, Calif.) or primary mouse monoclonal anti-rat OX-42 (1:500; to visualize microglial activation; BioSource, Camarillo, Calif.) for 24 hr at 4° C. The slides were then incubated in secondary biotinylated goat anti-mouse IgG antibody (1:500; Jackson ImmunoResearch, West Grove, Pa.) overnight at 4° C. Finally sections were reacted using the avidin-biotin complex procedure (ABC, Vector Elite kit; 1:100 in PBS-Triton; 2 hr; Vector laboratories, Burlingame, Calif.) and 3′,3′-diaminobenzidine (DAB; Sigma-Aldrich). Glucose oxidase (Sigma-Aldrich; type V-s; 0.02%) and beta-D-glucose (0.1%) were used to generate hydrogen peroxide. […] ammonium sulfate was added to the DAB solution (0.025% w/v) to intensify the reaction product. One series of sections was processed as described above except that the primary antibody was omitted from the incubation buffer (omission controls). The slides were dried overnight, cleared, and cover slipped.
Slides were viewed with an Olympus Vannox II bright-field microscope. Images were collected with a Cohu CCD camera coupled to an Apple PowerMac 7200 equipped with NIH Image software (version 1.60). Brightness and contrast were kept constant with the images not altered. The intensity of the light source was calibrated each day.
Representative sections (10×) of ipsilateral dorsal horns of neuropathic (CCI) rats treated intrathecally with 60 μg/hr (+)-naloxone ([…]), 60 μg/hr (−)-naloxone (FIG. 18F), and vehicle (FIG. 18G) are shown. […] Scale bar=500 μm.

[4] = system: HAPI microglial cell line; assay: HAPI microglial cell line activation by LPS, mRNA; type: cell-based
Protocol: HAPI microglial cell line was used to examine the effects of (+)-naloxone on microglial activation by LPS. Whereas 100 ng/mL LPS produced elevations in mRNA for CD11b (microglial activation marker), interleukin (IL)-1b, and IL-6, 1 μM (+)-naloxone abolished each of these LPS-induced effects. See FIG. 20 (GAPDH=glyceraldehyde-3-phosphate-dehydrogenase).

[5] = system: rats with chronic constriction injury of the sciatic nerve; assay: Chronic constriction injury (CCI)-induced allodynia, von Frey test; conditions: for reversal of CCI-induced allodynia: 60 mg/kg s.c.; for reversal of neuropathic pain: rat, in vivo; for reversal of established CCI-induced allodynia: delivery intrathecally or systemically
[6] = about 20 μg co-administered with morphine intrathecally
[7] = 12 mg/day s.c. minipump with 6 mg/day morphine, 7 days

T1 sequence (O00206 24-839): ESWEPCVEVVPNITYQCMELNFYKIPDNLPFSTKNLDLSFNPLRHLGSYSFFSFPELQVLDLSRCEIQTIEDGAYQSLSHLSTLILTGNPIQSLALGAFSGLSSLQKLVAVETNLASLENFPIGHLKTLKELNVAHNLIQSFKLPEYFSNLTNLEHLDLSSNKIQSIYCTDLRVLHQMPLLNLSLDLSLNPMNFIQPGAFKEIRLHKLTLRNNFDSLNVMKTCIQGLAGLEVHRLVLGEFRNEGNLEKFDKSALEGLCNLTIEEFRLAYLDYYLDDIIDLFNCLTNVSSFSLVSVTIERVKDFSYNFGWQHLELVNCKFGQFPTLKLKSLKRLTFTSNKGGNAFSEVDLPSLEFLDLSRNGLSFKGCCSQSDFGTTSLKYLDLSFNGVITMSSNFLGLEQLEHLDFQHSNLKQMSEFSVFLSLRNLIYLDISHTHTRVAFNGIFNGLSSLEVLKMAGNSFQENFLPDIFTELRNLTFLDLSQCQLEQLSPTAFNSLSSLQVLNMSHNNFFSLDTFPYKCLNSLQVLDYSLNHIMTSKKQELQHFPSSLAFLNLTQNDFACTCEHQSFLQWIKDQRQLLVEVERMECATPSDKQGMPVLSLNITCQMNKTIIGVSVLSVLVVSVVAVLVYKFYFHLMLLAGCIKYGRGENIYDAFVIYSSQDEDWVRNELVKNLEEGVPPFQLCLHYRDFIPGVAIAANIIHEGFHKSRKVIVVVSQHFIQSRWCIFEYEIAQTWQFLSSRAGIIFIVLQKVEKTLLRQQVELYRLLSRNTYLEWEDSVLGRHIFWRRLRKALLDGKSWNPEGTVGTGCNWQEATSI
T1 sequence (Q9Y6Y9 17-160 partner limits assumed): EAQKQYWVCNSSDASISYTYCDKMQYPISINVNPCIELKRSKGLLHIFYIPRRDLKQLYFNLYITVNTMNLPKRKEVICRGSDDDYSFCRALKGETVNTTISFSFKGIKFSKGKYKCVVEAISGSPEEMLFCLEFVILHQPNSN

CCC(=O)C(C[C@H](C)N(C)C)(c1ccccc1)c1ccccc1 [(+)-methadone]
TLR4 mRNA in lumbar dorsal spinal cord (TLR4 mRNA): significant elevation

COc1ccc2c3c1O[C@H]1C(=O)CC[C@@]4(O)[C@@H](C2)N(C)CC[C@]314 [oxycodone, reference compound]
TLR4 agonist activity (human TLR4): TLR4 agonists

CCC(=O)C(CC(C)N(C)C)(c1ccccc1)c1ccccc1 (centres unmarked) [methadone, reference compound]
TLR4 agonist activity (human TLR4): TLR4 agonists

C=CCN1CC[C@]23c4c5ccc(O)c4O[C@H]2C(=O)CC[C@]3(O)[C@H]1C5 [(+)-naloxone, (+)-Naloxone]
M3G induced TLR4 signaling (human TLR4): attenuation | antagonism of LPS activity at TLR4 (human TLR4): significant non-competitive antagonism; also recorded: non-competitively antagonizes | effect on basal unstimulated SEAP expression (human TLR4): no substantial effect | increase in the EC50 of LPS (human TLR4): 3 fold | morphine induced TLR4 signaling (human TLR4): attenuation | reduction in the Emax of LPS (human TLR4): 40% | morphine analgesia ([1]; 20 μg intrathecal with subcutaneous morphine 4 mg/kg): significantly potentiated; also recorded: potentiation | morphine analgesia [1, 6]: significant potentiation of analgesia | development of morphine-induced hyperalgesia (morphine-treated rats; [7]): blocked the development of morphine-induced hyperalgesia | development of tolerance (morphine-treated rats; [7]): attenuated the development of tolerance | morphine analgesia (morphine-treated rats; [7]): potentiated | weight gain (morphine-treated rats; [7]): enabled normal weight gain | withdrawal behaviors (morphine-treated rats; withdrawal precipitated by 100 mg/kg (−)-naltrexone on day 7): reduced withdrawal behaviors | morphine-induced Akt1 response ([2]; morphine 100 μM): blocked | LPS-induced Akt1 response ([2]; preincubation 1mM prior to LPS 7.5 μg/mL): significantly attenuated | CD11b/c expression [3]: reliable suppression | GFAP expression in ipsilateral or contralateral dorsal horns [3]: neither (+)-nor (−)-naloxone affected | LPS-induced elevation in mRNA for CD11b ([4]; 1 μM with 100 ng/mL LPS): abolished | LPS-induced elevation in mRNA for IL-6 ([4]; 1 μM with 100 ng/mL LPS): abolished | LPS-induced elevation in mRNA for interleukin (IL)-1b ([4]; 1 μM with 100 ng/mL LPS): abolished | reversal of CCI-induced allodynia ([5]; 30 min): not significantly | reversal of CCI-induced allodynia ([5]; 90 min): reversed CCI-induced allodynia; also recorded: reversed established allodynia; also recorded: acutely reverses | ipsilateral and contralateral mechanical allodynia ([5]; 100 mg/kg subcutaneous, 14 days after CCI): reliable attenuation | reversal of neuropathic pain [5]: reverses neuropathic pain

C=CCN1CC[C@]23c4c5ccc(O)c4O[C@H]2C(=O)CC[C@@]3(O)[C@H]1C5 [naloxone, reference compound]
ipsilateral and contralateral allodynia ([5]; chronic intrathecal osmotic minipump, 20 or 60 ug/hr, 4-96 hr): attenuation

CN1CC[C@]23c4c5ccc(O[C@@H]6O[C@H](C(=O)O)[C@@H](O)[C@H](O)[C@H]6O)c4O[C@H]2[C@@H](O)C=C[C@H]3[C@H]1C5 [M3G, morphine-3-glucuronide, reference compound]
TLR4 agonist activity (human TLR4): showed TLR4 agonist activity

(−)-methadone
TLR4 mRNA in lumbar dorsal spinal cord (TLR4 mRNA): significant elevation

O=C1CC[C@]2(O)[C@@H]3Cc4ccc(O)c5c4[C@]2(CCN3CC2CC2)[C@@H]1O5 [(+)-naltrexone]
morphine analgesia [1, 6]: significant potentiation of analgesia | reversal of established CCI-induced allodynia [5]: reversed established CCI-induced allodynia

CCOC(=O)C1(c2ccccc2)CCN(C)CC1 [pethadine/meperidine, meperidine, reference compound]
TLR4 agonist activity (human TLR4): TLR4 agonists

(−)-naltrexone [reference compound]
reversal of established CCI-induced allodynia [5]: reversed established CCI-induced allodynia

Lipopolysaccharide [LPS, reference compound]
EC50 (SEAP expression) (human TLR4): 0.21 ng/mL | Emax (SEAP expression) (human TLR4): 40,956 arbitrary fluorescence units | clearance of GFP-Akt1 from the cytosol [2]: robust, rapid clearance | mRNA for CD11b ([4]; 100 ng/mL): elevations | mRNA for IL-6 ([4]; 100 ng/mL): elevations | mRNA for interleukin (IL)-1b ([4]; 100 ng/mL): elevations

(−)-naloxone [reference compound]
CD11b/c expression [3]: reliable suppression | GFAP expression in ipsilateral or contralateral dorsal horns [3]: neither (+)-nor (−)-naloxone affected | reversal of neuropathic pain [5]: reverses neuropathic pain

CN1CC[C@]23c4c5ccc(O)c4O[C@H]2[C@@H](O[C@@H]2O[C@H](C(=O)O)[C@@H](O)[C@H](O)[C@H]2O)C=C[C@H]3[C@H]1C5 [M6G, morphine-6-glucuronide, reference compound]
TLR4 agonist activity (human TLR4): not found to have any significant TLR4 agonist activity
